# Where a SMILES comes first, the peptide text is derived from it. The star is where a group is joined. Myristoyl = CCCCCCCCCCCCCC(=O)*
# How the values were obtained:
# Solubility of peptide = format: physicochemical
# isolated rat hearts = assay: Myocardial ischemia/reperfusion (I/R) injury in isolated rat hearts (Langendorff, ex vivo); conditions: for Final Coronary Flow / Final Heart Rate / Final LVDP / Final LVEDP / Final LVESP / Final dP/dtmax / Final dP/dtmin: 50 min post-reperfusion; for Infarct Size: I(30 min)/R(50 min), infarct tissue weight/total tissue weight; for Initial Coronary Flow / Initial Heart Rate / Initial LVDP / Initial LVEDP / Initial LVESP / Initial dP/dtmax / Initial dP/dtmin: baseline before ischemia
# Experimental: Rat hearts were isolated from anesthetized male Sprague Dawley rats (275-325 g), placed in ice-cold Krebs' buffer, and placed onto a Langendorff heart apparatus and retro perfused with Krebs' buffer at a constant pressure of 80 mmHg (FIG. 1). A pressure transducer measures heart rate, left ventricular end-systolic pressure, end-diastolic pressure, dP/dt max, and dP/dt min. Coronary flow is measured via a flow probe connected to the perfusion tubing. Cardiac function was recorded throughout the experimental protocol using a pressure transducer inserted into the left ventricle (15 min baseline; global I(30 min)/R(50 min)). Selected peptides of TABLE 1 or vehicle (control [0.05 to 0.2% Dimethylsulfoxide) were given during the first 5 min of reperfusion. All peptide inhibitors or activators were dissolved in 28% DMSO and the final concentration of DMSO with peptides or without peptides (control I/R hearts) delivered to all hearts was 0.06%. Statistical analysis was performed using ANOVA and Bonferroni-Dunn post-hoc test.
# At the end of the experimental protocol, hearts were removed from the Langendorff apparatus, and frozen for 30 min at −20° C. Hearts were sectioned (2 mm) from base to apex and placed in 1% TTC for ˜10 min at 37° C. Viable tissue stained red and infarcted tissue was unstained (pale). Total tissue sections were weighed and infarcted tissue was separated from viable tissue and weighed to determine infarct size (i.e. infarct tissue weight/total tissue weight).
structure (smiles),measurement,setting,value
CCCCCCCCCCCCCC(=O)N[C@@H](Cc1ccc(O)cc1)C(=O)NCC(=O)N[C@@H](CCCNC(=N)N)C(=O)N[C@@H](CCCCN)C(=O)N[C@@H](CCCCN)C(=O)N[C@@H](CCCNC(=N)N)C(=O)N[C@@H](CCCNC(=N)N)C(=O)N[C@@H](CCC(N)=O)C(=O)N[C@@H](CCCNC(=N)N)C(=O)N[C@@H](CCCNC(=N)N)C(=O)N[C@@H](CCCNC(=N)N)C(=O)N[C@@H](CS)C(=O)N[C@@H](CS)C(=O)N[C@@H](CCC(=O)O)C(=O)N[C@@H](C)C(=O)N[C@H](C(=O)N[C@@H](CO)C(=O)N[C@@H](CC(C)C)C(=O)N[C@@H](CCCCN)C(=O)N1CCC[C@H]1C(=O)N[C@H](C(=O)O)[C@@H](C)O)C(C)C [Myr + TAT + PKCε-] (Myristoyl-YGRKKRRQRRRCCEAVSLKPT-OH; C-terminus assumed),solubility,Solubility of peptide,≤ 100 mM
same,Final Coronary Flow,isolated rat hearts; 100 pM,10 ± 1 mL/min
same,Final Heart Rate,isolated rat hearts; 100 pM,252 ± 8 BPM
same,Final LVDP,isolated rat hearts; 100 pM,47 ± 11 mmHg
same,Final LVEDP,isolated rat hearts; 100 pM,47 ± 10 mmHg
same,Final LVESP,isolated rat hearts; 100 pM,94 ± 14 mmHg
same,Final dP/dtmax,isolated rat hearts; 100 pM,1021 ± 246 mmHg/s
same,Final dP/dtmin,isolated rat hearts; 100 pM,−688 ± 142 mmHg/s
same,Infarct Size,isolated rat hearts; 100 pM,18 ± 1%
same,Initial Coronary Flow,isolated rat hearts; 100 pM,18 ± 2 mL/min
same,Initial Heart Rate,isolated rat hearts; 100 pM,285 ± 6 BPM
same,Initial LVDP,isolated rat hearts; 100 pM,89 ± 3 mmHg
same,Initial LVEDP,isolated rat hearts; 100 pM,10 ± 0.4 mmHg
same,Initial LVESP,isolated rat hearts; 100 pM,100 ± 3 mmHg
same,Initial dP/dtmax,isolated rat hearts; 100 pM,2457 ± 37 mmHg/s
same,Initial dP/dtmin,isolated rat hearts; 100 pM,−1726 ± 49 mmHg/s
same,Final Coronary Flow,isolated rat hearts; 1 nM,10 ± 1 mL/min
same,Final Heart Rate,isolated rat hearts; 1 nM,266 ± 6 BPM
same,Final LVDP,isolated rat hearts; 1 nM,49 ± 8 mmHg
same,Final LVEDP,isolated rat hearts; 1 nM,52 ± 9 mmHg
same,Final LVESP,isolated rat hearts; 1 nM,101 ± 9 mmHg
same,Final dP/dtmax,isolated rat hearts; 1 nM,1147 ± 156 mmHg/s
same,Final dP/dtmin,isolated rat hearts; 1 nM,−733 ± 68 mmHg/s
same,Infarct Size,isolated rat hearts; 1 nM,10 ± 2 %
same,Initial Coronary Flow,isolated rat hearts; 1 nM,18 ± 1 mL/min
same,Initial Heart Rate,isolated rat hearts; 1 nM,293 ± 13 BPM
same,Initial LVDP,isolated rat hearts; 1 nM,91 ± 4 mmHg
same,Initial LVEDP,isolated rat hearts; 1 nM,10 ± 1 mmHg
same,Initial LVESP,isolated rat hearts; 1 nM,101 ± 5 mmHg
same,Initial dP/dtmax,isolated rat hearts; 1 nM,2440 ± 72 mmHg/s
same,Initial dP/dtmin,isolated rat hearts; 1 nM,−1674 ± 106 mmHg/s
same,Final Coronary Flow,isolated rat hearts; 30 nM,9 ± 1 mL/min
same,Final Heart Rate,isolated rat hearts; 30 nM,261 ± 11 BPM
same,Final LVDP,isolated rat hearts; 30 nM,48 ± 10 mmHg
same,Final LVEDP,isolated rat hearts; 30 nM,50 ± 15 mmHg
same,Final LVESP,isolated rat hearts; 30 nM,108 ± 3 mmHg
same,Final dP/dtmax,isolated rat hearts; 30 nM,1059 ± 336 mmHg/s
same,Final dP/dtmin,isolated rat hearts; 30 nM,−733 ± 99 mmHg/s
same,Infarct Size,isolated rat hearts; 30 nM,14 ± 2%
same,Initial Coronary Flow,isolated rat hearts; 30 nM,16 ± 1 mL/min
same,Initial Heart Rate,isolated rat hearts; 30 nM,271 ± 7 BPM
same,Initial LVDP,isolated rat hearts; 30 nM,88 ± 2 mmHg
same,Initial LVEDP,isolated rat hearts; 30 nM,11 ± 1 mmHg
same,Initial LVESP,isolated rat hearts; 30 nM,99 ± 2 mmHg
same,Initial dP/dtmax,isolated rat hearts; 30 nM,2344 ± 22 mmHg/s
same,Initial dP/dtmin,isolated rat hearts; 30 nM,−1588 ± 18 mmHg/s
same,restoration of post-reperfused cardiac function compared to control I/R hearts,"isolated rat hearts; 100 nM given at the beginning of reperfusion for 5 minutes, 25 to 50 min",significantly restored post-reperfused cardiac function
same,Final Coronary Flow,isolated rat hearts; 100 nM,11 ± 2 mL/min
same,Final Heart Rate,isolated rat hearts; 100 nM,254 ± 12 BPM
same,Final LVDP,isolated rat hearts; 100 nM,66 ± 6 mmHg
same,Final LVEDP,isolated rat hearts; 100 nM,48 ± 13 mmHg
same,Final LVESP,isolated rat hearts; 100 nM,114 ± 11 mmHg
same,Final dP/dtmin,isolated rat hearts; 100 nM,−981 ± 135 mmHg/s
same,Infarct Size,isolated rat hearts; 100 nM,8 ± 2 %
same,Initial Coronary Flow,isolated rat hearts; 100 nM,20 ± 2 mL/min
same,Initial Heart Rate,isolated rat hearts; 100 nM,301 ± 10 BPM
same,Initial LVDP,isolated rat hearts; 100 nM,89 ± 4 mmHg
same,Initial LVEDP,isolated rat hearts; 100 nM,9 ± 1 mmHg
same,Initial LVESP,isolated rat hearts; 100 nM,98 ± 3 mmHg
same,Initial dP/dtmax,isolated rat hearts; 100 nM,2528 ± 133 mmHg/s
same,Initial dP/dtmin,isolated rat hearts; 100 nM,−1807 ± 125 mmHg/s
same,Final Coronary Flow,isolated rat hearts; 1 μM,10 ± 3 mL/min
same,Final Heart Rate,isolated rat hearts; 1 μM,296 ± 86 BPM
same,Final LVDP,isolated rat hearts; 1 μM,40 ± 15 mmHg
same,Final LVEDP,isolated rat hearts; 1 μM,60 ± 12 mmHg
same,Final LVESP,isolated rat hearts; 1 μM,101 ± 6 mmHg
same,Final dP/dtmax,isolated rat hearts; 1 μM,794 ± 220 mmHg/s
same,Final dP/dtmin,isolated rat hearts; 1 μM,−616 ± 122 mmHg/s
same,Infarct Size,isolated rat hearts; 1 μM,5 ± 2 %
same,Initial Coronary Flow,isolated rat hearts; 1 μM,21 ± 1 mL/min
same,Initial Heart Rate,isolated rat hearts; 1 μM,274 ± 15 BPM
same,Initial LVDP,isolated rat hearts; 1 μM,94 ± 5 mmHg
same,Initial LVEDP,isolated rat hearts; 1 μM,10 ± 2 mmHg
same,Initial LVESP,isolated rat hearts; 1 μM,104 ± 6 mmHg
same,Initial dP/dtmax,isolated rat hearts; 1 μM,2493 ± 128 mmHg/s
same,Initial dP/dtmin,isolated rat hearts; 1 μM,−1786 ± 97 mmHg/s
same,cardio depressive effect on post-reperfused cardiac function compared to all other groups,isolated rat hearts; 10 μM,most cardio depressive effect
same,reduction of infarct size compared to control I/R hearts,isolated rat hearts; 10 μM,reduced infarct size
same,stunning concentration relative to the concentration needed to produce a 50% reduction in infarct size,isolated rat hearts; 10 μM,"10,000 times"
same,stunning of the heart during reperfusion,isolated rat hearts; 10 μM,caused stunning
same,effect on reducing infarct size,isolated rat hearts; 10 μM and 1 μM,most robust effect on reducing infarct size
same,Final Coronary Flow,isolated rat hearts; 10 μM,0 mL/min
same,Final Heart Rate,isolated rat hearts; 10 μM,811 ± 79 BPM
same,Final LVDP,isolated rat hearts; 10 μM,1 ± 0.2 mmHg
same,Final LVEDP,isolated rat hearts; 10 μM,68 ± 17 mmHg
same,Final LVESP,isolated rat hearts; 10 μM,69 ± 17 mmHg
same,Final dP/dtmax,isolated rat hearts; 10 μM,54 ± 14 mmHg/s
same,Final dP/dtmin,isolated rat hearts; 10 μM,−56 ± 14 mmHg/s
same,Infarct Size,isolated rat hearts; 10 μM,5 ± 2 %
same,Initial Coronary Flow,isolated rat hearts; 10 μM,18 ± 2 mL/min
same,Initial Heart Rate,isolated rat hearts; 10 μM,285 ± 24 BPM
same,Initial LVDP,isolated rat hearts; 10 μM,92 ± 3 mmHg
same,Initial LVEDP,isolated rat hearts; 10 μM,8 ± 2 mmHg
same,Initial LVESP,isolated rat hearts; 10 μM,101 ± 4 mmHg
same,Initial dP/dtmax,isolated rat hearts; 10 μM,2540 ± 158 mmHg/s
same,Initial dP/dtmin,isolated rat hearts; 10 μM,−1772 ± 141 mmHg/s
same,"minimum effective concentration, tissue-salvaging effects (infarct size)",isolated rat hearts; ex vivo rat I/R hearts,1 nM
same,decrease in minimum effective concentration (increase in potency to reduce infarct size) as compared to Myr+PKCε−,"isolated rat hearts; infarct size, FIG. 3","10,000 ×"

# Source: patent US20230125482A1, “PROTEIN KINASE C MODULATORS” (Young Therapeutics, LLC, priority 2020, published 2023)
